Experiments:
APOL1 = target: T1, APOL1 (Homo sapiens, UniProt O14791); test: Multi-Tox Assay (MultiTox-Fluor Multiplex Cytotoxicity Assay in tet-inducible APOL1 T-REx-HEK293 cells; Table 46 does not say which APOL1 variant G0/G1/G2); format: cell-based; settings: APOL1 variant not given; for IC50: IP50 = IC50 for cell proliferation
T1 sequence (O14791 1-398 S342G/I384M): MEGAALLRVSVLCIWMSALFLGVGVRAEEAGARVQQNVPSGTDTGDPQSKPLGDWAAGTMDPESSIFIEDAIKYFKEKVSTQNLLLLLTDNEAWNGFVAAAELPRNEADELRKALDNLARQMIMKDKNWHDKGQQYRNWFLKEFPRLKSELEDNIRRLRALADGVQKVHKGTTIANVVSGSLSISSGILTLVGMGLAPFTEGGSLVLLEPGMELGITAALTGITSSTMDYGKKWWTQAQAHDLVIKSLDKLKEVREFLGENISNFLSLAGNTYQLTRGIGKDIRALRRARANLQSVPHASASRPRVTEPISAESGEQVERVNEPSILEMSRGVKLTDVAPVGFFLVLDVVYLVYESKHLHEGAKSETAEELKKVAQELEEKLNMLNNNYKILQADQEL

APOL1 G1 = target: T2, APOL1 G1 (Homo sapiens, UniProt O14791, I384M/S342G); test: Trypanosoma brucei brucei Lysis Assay Using APOL1 Recombinant Protein (AlamarBlue viability readout); format: cell-based; settings: Trypanosome Assay; for IC50: IP50 = IC50 for cell proliferation, read-out: Trypanosome Assay IP50; for Emax: read-out: Trypanosome Assay Max Activity (%)
T2 sequence (O14791 28-398 S342G/I384M): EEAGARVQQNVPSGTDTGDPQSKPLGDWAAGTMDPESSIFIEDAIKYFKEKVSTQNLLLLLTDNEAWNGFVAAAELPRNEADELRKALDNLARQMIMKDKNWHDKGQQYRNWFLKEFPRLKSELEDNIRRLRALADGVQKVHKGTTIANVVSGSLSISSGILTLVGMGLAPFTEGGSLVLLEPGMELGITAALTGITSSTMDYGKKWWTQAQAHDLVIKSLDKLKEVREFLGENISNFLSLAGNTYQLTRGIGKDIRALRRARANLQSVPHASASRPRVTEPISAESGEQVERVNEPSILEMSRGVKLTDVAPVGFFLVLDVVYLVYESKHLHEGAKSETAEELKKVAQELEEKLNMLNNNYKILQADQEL
Description: Trypanosoma brucei brucei is a blood stream parasite to which human, gorillas, and baboons are immune due to the presence of the APOL1 protein in their HDL particles. The protein is uptaken by the parasite via the TbHpHb receptor located in its flagellar pocket and is bonded by the Hpr protein contained in the HDL particles which triggers the receptor endocytosis by the parasite.
Following endocytosis, the formed vesicle containing the HDL particle matures from early to late endosome, and subsequently to lysosome. The concomitant pH change in the lumen of the vesicle triggers the insertion of the APOL1 protein into the membrane of the late endosome/lysosome and hereby triggers lysosomal membrane permeabilization and as a further downstream event, trypanosome lysis. Trypanosoma brucei brucei is sensitive to lysis by all three APOL1 variants (G0, G1, and G2).
The Trypanosoma brucei brucei lysis assay is a lysis assay of the parasite using recombinant APOL1 protein variant followed by a fluorescent detection method of viability by the addition of AlamarBlue reagent to the assay well, a general metabolic redox indicator (AlamarBlue assay).
Briefly, the AlamarBlue active compound, resazurin, a blue, water soluble, non-toxic and cell permeable molecule, which can be followed by absorbance, is reduced by various metabolic pathways into resorufin, a red compound which can be followed by either absorbance or fluorescence. The assay allows the calculation of the percent viability (percent of living Trypanosomes remaining in each well) at the end of a lysis relative to the untreated condition by interpolation of fluorescent values (FLU) on a standard curve with a known amount of seeded trypanosome/well.
Trypanosoma brucei brucei (ATCC, Cat. No. PRA-382)
• Lister 427 VSG 221 bloodstream form.
Equipment • E1-Clip Tip pipette 12 channel adjustable 2-125 μL, Cat. No. 4672070BT • ThermoFisher MultiDrop 384, Cat. No. 5840300 • Multidrop • Agilent Bravo, Cat. No. G5409A • Bravo • SpectraMax M5 Assay Ready Plates (ARPs) • ARPs comes in two formats: • […] final top concentration with a 2.5 fold dilution down. • […] final top concentration with a 3 fold dilution down. • Both have a 10 point Dose response. • 0.1% DMSO final in the Black Assay Plate. • Compounds are diluted 1000 fold in the Black Assay Plate. • Each plate is designed for 14 compounds in duplicate. • In the final Black Assay Plate: • Column 1: Media only (no APOL1) (100% viable) • Column 2-23: 0.05 μg/mL APOL1 (˜EC90) (10% viable with APOL1) • Column 24: 0.1 μg/mL APOL1 (EC100) (Approx. […] Step 2, Day 4 • Centrifuge at 800×g for 5 minutes at room temperature. • Resuspend in 1 mL media. • Make a 1:25 fold dilution (10 μL/240 μL media). • Count on a hemocytometer (after adding parasites). • Let sit for 1-2 minutes for the parasites to settle. • Count should be approximately 100 viable motile parasites/16 grid or approximately 25×10^6 parasites/flask. • Passage the parasites by adding 1×10^6 parasites/T75 flask in 20 mL media. • Passage the parasites by adding 2.33×10^6 parasites/T175 flask in 46.6 mL media. • For every T75 flask should make enough for approximately 1.5×384 well assay plates. • For every T175 flask should make enough for approximately 3.8×384 well assay plates. Step 3, Day 6 • Centrifuge at 800×g for 5 minutes. • Resuspend in 3 mL assay media (No phenol red, no FBS) per 75 starting flask. • Resuspend in 7 mL assay media (No phenol red, no FBS) per 175 flask • Make a 1:25 fold dilution. • Count by hemocytometer. • Every T75 flask set up should have approximately 75×10^6 parasites/flask (verify doubling time=8.7 hours±1 hour). • Every T175 flask set up should have approximately 175×10^6 parasites/flask (verify doubling time=8.7 hours±1 hour). • Require 46×10^6 parasites per 384 well plate (at 120,000 parasites per well). […]

Compound	IC50 (APOL1)	IC50 (APOL1 G1)	Emax (APOL1 G1)	IC90 (APOL1)	Multi-Tox Assay Max Activity (%) (APOL1)
C[C@H]1C[C@@]2(C[C@@H](c3ccc(S(N)(=O)=O)cc3F)N1)OCCc1cc(Cl)sc12 (racemic) [Compound 78]	< 50 nM	< 50 nM	102%		
C[C@H]1C[C@@]2(C[C@@H](c3cocn3)N1)OCCc1cc(Cl)sc12 (racemic) [Compound 79]	< 50 nM	< 50 nM	97.5%		
C[C@H]1C[C@@]2(C[C@@H](c3ccc(=O)n(C)c3)N1)OCCc1cc(Cl)sc12 (racemic) [Compound 80]	< 50 nM	< 50 nM			
C[C@H]1C[C@@]2(C[C@@H](c3ccccc3)N1)OCCc1cc(Cl)sc12 (racemic) [Compound 81]	< 50 nM	< 50 nM			
Cc1ncc([C@@H]2C[C@]3(C[C@H](C)N2)OCCc2cc(Cl)sc23)cn1 (racemic) [Compound 82]	< 50 nM	< 50 nM	106%		
C[C@H]1C[C@@]2(C[C@@H](c3ccccn3)N1)OCCc1cc(Cl)sc12 (racemic) [Compound 83]	< 50 nM	< 50 nM	111%		
COc1ccc2[nH]c([C@@H]3C[C@]4(C[C@H](C)N3)OCCc3cc(Cl)sc34)cc2n1 (racemic) [Compound 84]	< 50 nM	< 50 nM	112%		
C[C@H]1C[C@@]2(C[C@@H](c3c[nH]cn3)N1)OCCc1cc(Cl)sc12 (racemic) [Compound 85]	< 50 nM	< 50 nM			
C[C@H]1C[C@@]2(C[C@@H](c3cc(C4CC4)no3)N1)OCCc1cc(Cl)sc12 (racemic) [Compound 87]	< 50 nM	< 50 nM			
C[C@H]1C[C@@]2(C[C@@H](c3cc(-c4ccccn4)n[nH]3)N1)OCCc1cc(Cl)sc12 (racemic) [Compound 88]	< 50 nM	< 50 nM	98%	< 50 nM	99.3%
C[C@H]1C[C@@]2(C[C@@H](c3ccc(N(C)C)nc3)N1)OCCc1cc(Cl)sc12 (racemic) [Compound 89]	< 50 nM	< 50 nM	101%		
COCCn1cc([C@@H]2C[C@]3(C[C@H](C)N2)OCCc2cc(Cl)sc23)cn1 (racemic) [Compound 90]	< 50 nM	< 50 nM	104%		
C[C@H]1C[C@@]2(C[C@@H](c3cccnn3)N1)OCCc1cc(Cl)sc12 (racemic) [Compound 92]	< 50 nM	< 50 nM	103%		
C[C@H]1C[C@@]2(C[C@@H](c3ccnnc3)N1)OCCc1cc(Cl)sc12 (racemic) [Compound 93]	< 50 nM	50 to 500 nM	112%		
Cc1ncc([C@@H]2C[C@]3(C[C@H](C)N2)OCCc2cc(Cl)sc23)o1 (racemic) [Compound 94]	< 50 nM	< 50 nM	104%		
C[C@H]1C[C@@]2(C[C@@H](c3cnc(NC(C)(C)CO)nc3)N1)OCCc1cc(Cl)sc12 (racemic) [Compound 95]	< 50 nM	50 to 500 nM	106%		
C[C@H]1C[C@@]2(C[C@@H](c3ccon3)N1)OCCc1cc(Cl)sc12 (racemic) [Compound 96]	< 50 nM	< 50 nM	104%		
Cc1cc([C@@H]2C[C@]3(C[C@H](C)N2)OCCc2cc(Cl)sc23)nn1C (racemic) [Compound 98]	< 50 nM	< 50 nM	110%		99.0%
COc1ccc([C@@H]2C[C@]3(C[C@H](C)N2)OCCc2cc(Cl)sc23)cc1O (racemic) [Compound 99]	< 50 nM	< 50 nM	102%		99.0%
C[C@H]1C[C@@]2(C[C@@H](c3cnn(C4CCOCC4)c3)N1)OCCc1cc(Cl)sc12 (racemic) [Compound 100]	< 50 nM	< 50 nM	99%		
C[C@H]1C[C@@]2(C[C@@H](c3cnccn3)N1)OCCc1cc(Cl)sc12 (racemic) [Compound 101]	< 50 nM	50 to 500 nM	114%		100.0%
CCOc1cc([C@@H]2C[C@]3(C[C@H](C)N2)OCCc2cc(Cl)sc23)ccc1O (racemic) [Compound 102]	< 50 nM	< 50 nM	112%		99.8%
C[C@H]1C[C@@]2(C[C@@H](c3cnn(CC(C)(CO)CO)c3)N1)OCCc1cc(Cl)sc12 (racemic) [Compound 103]	< 50 nM	50 to 500 nM	118%		
Cc1nc([C@@H]2C[C@]3(C[C@H](C)N2)OCCc2cc(Cl)sc23)co1 (racemic) [Compound 104]	< 50 nM	50 to 500 nM	100%		99.3%
COc1ccccc1-c1ncc([C@@H]2C[C@]3(C[C@H](C)N2)OCCc2cc(Cl)sc23)cn1 (racemic) [Compound 105]	< 50 nM	< 50 nM	72%		99.3%
COCc1cc([C@@H]2C[C@]3(C[C@H](C)N2)OCCc2cc(Cl)sc23)no1 (racemic) [Compound 106]	< 50 nM	< 50 nM	107%		
CCOc1ccc([C@@H]2C[C@]3(C[C@H](C)N2)OCCc2cc(Cl)sc23)cc1O (racemic) [Compound 107]	< 50 nM	< 50 nM	92.5%		99.7%
Cc1cc([C@@H]2C[C@]3(C[C@H](C)N2)OCCc2cc(Cl)sc23)ccc1O (racemic) [Compound 108]	< 50 nM	< 50 nM	94.5%		99.0%
C[C@H]1C[C@@]2(C[C@@H](c3cccc(C(N)=O)c3)N1)OCCc1cc(Cl)sc12 (racemic) [Compound 109]	< 50 nM	50 to 500 nM	100%		100.0%
COc1nccc([C@@H]2C[C@]3(C[C@H](C)N2)OCCc2cc(Cl)sc23)n1 (racemic) [Compound 110]	< 50 nM	50 to 500 nM	115%		

Reference: patent US12421249B2, “Inhibitors of APOL1 and methods of using same” (Vertex Pharmaceuticals Incorporated, priority 2020, dated 2025)
